pIC50, pKi: −log10 of the molar value.
Assays:
Sprague Dawley rats = assay: IV infused EP3 antagonists on circulating insulin and glucose in the sulprostone infusion IVGTT model; type: in vivo, rat; conditions: SD rats, IV bolus plus infusion at 7×Ki and 10×Ki (targeted)
Source text: Biological Example 3—IV Infused EP3 Antagonists on Circulating Insulin and Glucose in the Sulprostone Infusion IVGTT Model
Jugular vein and carotid artery cannulated male Sprague Dawley rats (˜250 g, available from Charles River) were housed one rat per suspended cage in a temperature-controlled room with 12-hour light/dark cycle. The rats were allowed ad libitum access to water and maintained on a regular diet. Animals were acclimated for minimum 5 days prior to the start of the experiment. Experimental procedures were carried out in accordance with institutional standards for animal care and were approved by the institute's animal care and use committee.
A blood sample for insulin and blood chemistry was collected at 20 min (t=−20) prior to the start of dosing with sulprostone and/or test compound (EP3 antagonist). […]
Blood samples from all animals were collected into Heparin treated tubes. Background was measured via a glucometer at the 0 and 2 min time points to ensure that the animal received the glucose bolus. Plasma insulin was measured via a Meso Scale Discovery metabolic assay (available from Meso Scale). Plasma glucose, free fatty acid (FFA), triglycerides, cholesterol and ketones were measured on an OLYMPUS AU400E chemistry analyzer. Observations on animal health were recorded throughout the procedure. […]

EP3 receptor [1] = target: T1, EP3 receptor (Homo sapiens, UniProt P43115); assay: [3H]-PGE2 binding assay (EP3 competition binding); conditions: read-out: [3H]-PGE2 Binding Ki
T1 construct: purchased Millipore HTS092M
T1 sequence (P43115 1-390): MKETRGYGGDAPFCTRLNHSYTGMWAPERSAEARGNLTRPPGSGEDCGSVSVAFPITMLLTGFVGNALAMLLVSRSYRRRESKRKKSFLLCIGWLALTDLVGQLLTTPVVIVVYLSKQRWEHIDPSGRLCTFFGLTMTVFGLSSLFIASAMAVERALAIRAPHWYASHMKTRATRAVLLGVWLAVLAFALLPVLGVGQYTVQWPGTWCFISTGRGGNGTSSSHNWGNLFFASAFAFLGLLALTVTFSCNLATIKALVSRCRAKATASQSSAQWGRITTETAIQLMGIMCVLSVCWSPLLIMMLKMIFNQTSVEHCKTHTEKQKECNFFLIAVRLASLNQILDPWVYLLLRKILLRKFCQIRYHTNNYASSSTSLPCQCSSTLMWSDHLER
How it was run: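 Scintillation-bead competition binding with EP3 membranes (2 μg/well), 2 nM [3H]-PGE2, 0.1% DMSO, in 50 mM Tris, 10 mM MgCl2, 1 mM EDTA, pH 7.4.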

EP3 receptor [2] = target: T1, EP3 receptor; assay: CHO cell cAMP assay (forskolin and sulprostone stimulated, HTRF); type: cell-based; conditions: CHO cells; sulprostone 700 nM (EC80) and FSK 2 μM (EC70), 37° C. for 30 minutes; read-out: CHO_cAMP IC50

Row | pKi (EP3 receptor [1]) | pIC50 (EP3 receptor [2]) | SMILES | reversal of suppression of glucose stimulate insulin secretion (GSIS) by sulprostone (Sprague Dawley rats)
1 | 6.82 | 6.55 | CC(C)C1(Cc2ccc(-c3ccc4cccc(F)c4c3)[nH]c2=O)OC(=O)NC1=O (centres unmarked) [Compound #262, 5-((6-(8-fluoronaphthalen-2-yl)-2-oxo-1,2-dihydropyridin-3-yl)methyl)-5-isopropyloxazolidine-2,4-dione] | –
2 | 7.82 | 6.92 | O=C1NC(=O)C2(CCCC(c3ccc(-c4ccc5ccccc5c4)[nH]c3=O)C2)O1 (stereo not drawn) [compound 188, anti-7-(6-(naphthalen-2-yl)-2-oxo-1,2-dihydropyridin-3-yl)-1-oxa-3-azaspiro[4.5]decane-2,4-dione] | –
3 | 7.41 | 7.06 | CC(C)(CC1OC(=O)NC1=O)c1ccc(-c2ccc3cccc(F)c3c2)[nH]c1=O (centres unmarked) [compound 1, 5-(2-(6-(8-fluoronaphthalen-2-yl)-2-oxo-1,2-dihydropyridin-3-yl)-2-methylpropyl) oxazolidine-2,4-dione] | –
4 | 7.38 | 6.54 | O=c1[nH]c(-c2ccc3ccccc3c2)ccc1C1CCc2n[nH]cc2C1 (centres unmarked) [compound 195, 6-(naphthalen-2-yl)-3-(4,5,6,7-tetrahydro-2H-indazol-5-yl)pyridin-2(1H)-one] | –
5 | 6.49 | 5.37 | CC1(c2ccc(-c3ccc4ccccc4c3)[nH]c2=O)N=CNC1=O (centres unmarked) [compound 222, 3-(4-methyl-5-oxo-4,5-dihydro-1H-imidazol-4-yl)-6-(naphthalen-2-yl)-1,2-dihydropyridin-2-one] | –

The next lines start with the compound.

Row | SMILES | pKi (EP3 receptor [1]) | pIC50 (EP3 receptor [2]) | reversal of suppression of glucose stimulate insulin secretion (GSIS) by sulprostone (Sprague Dawley rats)
6 | CC(C)C(/C=C1\OC(=O)NC1=O)c1ccc(-c2ccc3cccc(F)c3c2)[nH]c1=O (racemic) [Compound #62, (Z)-5-(2-(6-(8-fluoronaphthalen-2-yl)-2-oxo-1,2-dihydropyridin-3-yl)-3-methylbutylidene)oxazolidine-2,4-dione] | – | – | reverse suppression of glucose stimulate insulin secretion (GSIS) by sulprostone
7 | CCn1ncc2c(Cl)cc(-c3ccc(C(/C=C4\OC(=O)NC4=O)C(C)C)c(=O)[nH]3)cc21 (centres unmarked) [compound 116, (Z)-5-(2-(6-(4-chloro-1-ethyl-1H-indazol-6-yl)-2-oxo-1,2-dihydropyridin-3-yl)-3-methylbutylidene)oxazolidine-2,4-dione] | 8.10 | 7.12 | –
8 | CC(C)C(F)(C(=O)NS(C)(=O)=O)c1ccc(-c2ccc3ccccc3c2)[nH]c1=O (centres unmarked) [compound 224, 2-fluoro-3-methyl-N-(methylsulfonyl)-2-(6-(naphthalen-2-yl)-2-oxo-1,2-dihydropyridin-3-yl)butanamide] | 5.89 | 4.97 | –
9 | CCn1ncc2c(F)cc(-c3ccc(C(CN4CCS(=O)(=O)CC4)C(C)C)c(=O)[nH]3)cc21 (centres unmarked) [Compound #133, 4-{2-[6-(1-ethyl-4-fluoroindazol-6-yl)-2-oxo-1H-pyridin-3-yl]-3-methylbutyl},4-thiomorpholine-1,1-dione] | 7.92 | 6.63 | –
10 | CCn1ncc2c(F)cc(-c3ccc(C4(F)CCCN(S(=O)(=O)C(C)C)C4)c(=O)[nH]3)cc21 (centres unmarked) [compound 296, 6-(1-ethyl-4-fluoro-1H-indazol-6-yl)-3-(3-fluoro-1-(isopropylsulfonyl)piperidin-3-yl)pyridin-2(1H)-one] | 9.00 | 6.99 | –
11 | CCn1ncc2c(F)cc(-c3ccc(C4(O)CN(S(=O)(=O)C(C)C)C4)c(=O)[nH]3)cc21 [compound 298, 6-(1-ethyl-4-fluoro-1H-indazol-6-yl)-3-(3-hydroxy-1-(isopropylsulfonyl)azetidin-3-yl)pyridin-2(1H)-one] | 6.01 | 5.08 | –
12 | CCN1C(=O)COc2c(F)cc(-c3ccc(C(CN4CCS(=O)(=O)CC4)C(C)C)c(=O)[nH]3)cc21 (centres unmarked) [Compound #128, 4-{2-[6-(4-ethyl-8-fluoro-3-oxo-2H-1,4-benzoxazin-6-yl)-2-oxo-1H-pyridin-3-yl]-3-methylbutyl},4-thiomorpholine-1,1-dione] | 6.81 | 4.74 | –
13 | CCn1ncc2c(F)cc(-c3ccc(C(/C=C4\CCNC4=O)(CC)CC)c(=O)[nH]3)cc21 [compound 16, 6-(1-ethyl-4-fluoro-indazol-6-yl)-3-[1-ethyl-1-[(E)-(2-oxopyrrolidin-3-ylidene)methyl]propyl]-1H-pyridin-2-one] | 8.22 | 7.77 | –
14 | CC(C)C(Cc1ccc(-c2ccc3cccc(F)c3c2)[nH]c1=O)c1nnn[nH]1 (centres unmarked) [compound 270, 6-(8-Fluoronaphthalen-2-yl)-3-(3-methyl-2-(1H-tetrazol-5-yl)butyl)pyridin-2(1H)-one] | 6.79 | 6.27 | –
15 | CC(C)C(/C=C1\OC(=O)NC1=O)c1ccc(-c2cc(F)c3cnn(C4CCCC4)c3c2)[nH]c1=O (centres unmarked) [compound 124, (Z)-5-(2-(6-(1-cyclopentyl-4-fluoro-1H-indazol-6-yl)-2-oxo-1,2-dihydropyridin-3-yl)-3-methylbutylidene)oxazolidine-2,4-dione] | 6.69 | 4.72 | –

Reference: patent US10336701B2, “Pyridin-2-one derivatives of formula (II) useful as EP3 receptor antagonists” (Janssen Pharmaceutica NV, priority 2017, dated 2019)
